In EP0098138A2, “Microbial cells and the use thereof to produce oxidation products” (EXXON RESEARCH AND ENGINEERING COMPANY, priority 1982, dated 1984):
Like-named read-outs stand apart in the source and are kept apart here.

Key:
[1] = tested on: Cell-Free Particulate Fraction of Arthrobacter sp. (CRL 60 P1) NRRL B-11,315; test: Oxidation of alkenes and alkanes by cell-free particulate P(40) fraction; type: biochemical
Method: (§9) Cells were harvested during exponential growth by centrifugation at 12,000 x g for 15 min. at 4°C. Cells were washed twice with a 25 mM potassium phosphate buffer of pH 7.0 containing 5mM MgCl2 and were then suspended in the same buffer. The resulting cell suspensions at 4°C were disintegrated by a single passage through a French pressure cell (45 mPa) and centrifuged at 5,000 x g for 15 min to remove unbroken bacteria. […] The particulate fraction [P(40)] was suspended in the same buffer as described above and homogenized at 4°C.
(§10) A 1.0 ml sample containing the particulate or soluble fraction, 10 µ moles NADH and 150 mM potassium phosphate buffer at pH 7.0 containing 3 µ moles MgCl2 was put into separate 10 ml vials at 4°C which were sealed with a rubber cap. The gaseous phase of the vials was removed by vacuum and replaced with a gas mixture of the indicated alkane or alkene as substrate and oxygen at a 1:1 v/v ratio. The vials were then incubated at 30°C on a rotary shaker at 200 rpm for 10 minutes.
Reactions were linear during the first 15 minutes of incubation as measured by detection of product by gas chromatography.

[2] = tested on: alkane monooxygenase; test: Epoxidation of alkenes and styrene by soluble extracts; type: biochemical, Brevibacterium sp. (CRL 56 P6Y) NRRL B-11,319
Method: The microorganism Brevibacterium sp. […] The fermentor was inoculated with 2 liters of a culture grown in flasks.
The cells thus grown were washed twice with 25 mM potassium phosphate buffer pH 7.0 and suspended in the same buffer solution containing 5mM MgCl2 and deoxyribonuclease (0.05 mg/ml). […] Disintegrated cell suspensions were centrifuged at 15,000 x g for 15 min. to remove unbroken cells. The supernatant solution was then centrifuged at 40,000 x g for 60 minutes and the supernatant solution therefrom was again centrifuged at 80,000 x g for 60 minutes, yielding the soluble fraction.
Several 3-ml vials at 4°C were charged with 0.2 ml of a reaction mixture consisting of 10 µmoles potassium phosphate buffer pH 7.0, 4 µ cmoles NADH2, and the soluble enzyme fraction obtained above. The gaseous phase of the vials was evacuated by vacuum and replaced with a gas mixture of gaseous oxidation substrate and oxygen (1:1 v/v); in the case of a liquid oxidation substrate, 2 µl of substrate was added. The vials were incubated at 35 °C on a reciprocating water bath shaker at 50 oscillations per minute.
The rate of epoxidation of alkenes and styrene was measured by injecting 1-2 µ1 samples of the reaction mixture into a gas chromatograph immediately after addition of substrate (zero time) and after 5 and 10 min. of incubation. Specific activities were expressed as […] of product formed per 10 min. per mg of protein. With each substrate, control experiments were conducted in the absence of NADH2, in the absence of oxygen, and using boiled extracts.

[3] = tested on: Propylene-Oxidizing Activity of Arthrobacter sp. (CRL 60 P1) NRRL B-11,315; test: Effect of inhibitors on propylene-oxidizing activity (propylene oxide formation) of propane-grown cell suspensions; type: cell-based; conditions: for inhibition at 1000 µM: Arthrobacter, NRRLB11, 0.25 h
Method: (§1) The pH of the nutrient medium was adjusted to 7.0 by the addition of acid or base and 50 ml samples of the nutrient medium were charged into a plurality of 300 ml shake flasks. The shake flasks were inoculated with an innoculating loop of cells from an agar plate containing homogeneous colonies of the microorganisms on the plate (the purity of the isolates was confirmed by microscopic examination). […] In the case of growth on liquid substrates (at 0.3%, v/v), the gaseous phase of the flasks was air. The inoculated flasks were sealed air tight and were incubated on a rotary shaker at 250 rpm and at 30°C for two days until turbidity in the medium had developed.
(§2) The cells were harvested by centrifugation at 12,000 x g. at 4 °C for 15 minutes. The cell pellet was washed twice with a 50 mM phosphate buffer at a pH of 7.0. The washed cells were then suspended in a 50mM phosphate buffer at pH 7.0.
(§3) The gaseous phase of the vials was removed with vacuum and then was replaced with a gas mixture of the oxidative substrate (e.g. ethane) and oxygen at a 1:1 v/v ratio. If a liquid substrate was employed, 5-10 µl of substrate was placed in the vials. […] Samples (3 µl) were withdrawn periodically with a microsyringe and the products were analyzed by gas chromatography (ionization flame detector column) at a column temperature of 100°C to 180 °C and at a carrier gas flow rate of 30 or 35 ml/ min of helium. The various products were identified by retention time comparisons and co-chromatography with authentic standards. […] Protein in the cell suspensions was determined by the method described by […].
(§4) All inhibitors were added at 1mM concentration and the cell suspensions were incubated for 15 min. at 4 °C.

[4] = tested on: Propane-Oxidizing Activity of Arthrobacter sp. (CRL 60 P1) NRRL B-11,315; test: Effect of inhibitors on propane-oxidizing activity (acetone production) of propane-grown cell suspensions; type: cell-based; conditions: for inhibition at 1000 µM: Arthrobacter, NRRLB11, 0.25 h
Method: as §1, §2, §3, §4

[5] = tested on: secondary alcohol dehydrogenase; test: Effect of inhibitors on oxidation of 2-butanol by cell extracts (NAD+ reduction at 340 nm); type: biochemical, Arthrobacter sp. (CRL 60 P1) NRRL B-11,315
Method: (§5) Cell suspensions of the microorganism strains identified in Table XII grown on the indicated growth substrate were disrupted with a wave energy ultrasonic oscillator Model W201 (Wave Energy System, Inc., Newton, Pa) and centrifuged at 30,000 x g for 30 min. The supernatant solution (cell extracts) was used for the oxidation of secondary alcohols. Secondary alcohol dehydrogenase activity was measured spectrophotometrically at 340 nm with oxidized nicotinamide adenine dinucleotide (NAD^+) as an electron acceptor.
(§6) The initial reaction mixture, in a total volume of 3.0 ml, consisted of 50mM phosphate buffer of pH 8.0, 5 µ moles of NAD^+, and cell extract.
All inhibitors were tested at lmM concentration and incubated with the soluble extracts in the reaction mixture for 15 min at 0°C. Otherwise the procedure described above was followed.

[6] = tested on: secondary alcohol dehydrogenase; test: Oxidation of secondary alcohols by soluble extracts (NAD+ reduction at 340 nm); type: biochemical, Arthrobacter sp. (CRL 60 P1) NRRL B-11,315; conditions: substrate of soluble extracts, pH 8.0, 100% = 22 nmoles of NAD+ reduced per minute per mg of protein
Method: as §5, §6

[7] = tested on: Arthrobacter sp. (CRL 60 Pl) NRRL B-11,315; test: Effect of propane on oxidation of propylene to propylene oxide by cell suspensions; type: cell-based; conditions: propane added to cell suspensions epoxidising propylene
Text: (§7) The following summarizes tests conducted on the optimal conditions for the production of propylene oxide from propylene using cell suspensions of propane-grown Arthrobacter sp. (CRL 60 Pl) NRRL B-11,315 as the representative microorganism strain. It will be understood that these are optimal conditions found for one particular strain and one particular substrate, and the invention is not meant to be bound by them. Conversions of propylene can still be obtained using Arthrobacter sp. (CRL 60 Pl) NRRL B-11,315 by deviating from the optimum indicated below, but with lower yields and conversions.
The effect of propane on the oxidation of propylene to propylene oxide was studied to determine if a single enzyme system was responsible for the oxidation of both propane and propylene.

[8] = tested on: Arthrobacter sp. (CRL 60 Pl) NRRL B-11,335
Method: as §3
Arthrobacter sp. […] Ethanol was converted to acetaldehyde (acetyl Co ~A in vivo) by primary alcohol dehydrogenase, yielding 1 mole of NADH, with subsequent oxidation of the intermediate acetyl Co ~A to carbon dioxide, yielding 3 additional moles of NADH.

[9] = tested on: Cell-Free Particulate P(40) Fraction of Arthrobacter sp. (CRL 60 P1) NRRL B-11,315
Method: as §9, §10

[10] = tested on: Cell-Free Particulate P(40) Fraction of Arthrobacter sp. (CRL 60 P1) NRRL B-11,315; test: Effect of inhibitors on oxidation of propane and butane by cell-free particulate P(40) fraction
Method: as §9, §10

[11] = type: physicochemical
Method: (§8) To determine if the slower reaction rate after 40-60 min of incubation was due to enzymatic or non-enzymatic oxidation of propylene oxide or due to product inhibition, 5 µ moles of propylene oxide was added to viable and to heat-killed cell suspensions in the presence and absence of propylene, and incubated at 30°C.
[…]. The rate of epoxidation of propylene was found not to vary markedly in the pH range from 5 to 9, with the optimum pH about 7. A 5 A mole sample of propylene oxide was added to heat-killed cell suspensions at pH 5, 7 and 9 to test for non-enzymatic degradation of propylene oxide at these pH values.

[12] = tested on: Arthrobacter sp. (CRL 60 Pl) NRRL B-11,315; test: Further oxidation of added propylene oxide by viable cell suspensions; type: cell-based; conditions: 5 µ moles added to viable cell suspension, 30°C
Text: as §7, §8

[13] = alkene substrate, epoxide product, P(40) fraction, NADH and oxygen, pH 7.0, 30°C
[14] = substrate epoxidised by soluble fraction, NADH2 and oxygen, pH 7.0, 35°C
[15] = inhibitor 1mM, cell suspensions incubated 15 min at 4°C, propylene oxide formation by gas chromatography, uninhibited rate 0.6 μmoles/15 min/mg of protein
[16] = inhibitor 1mM, cell suspensions incubated 15 min at 4°C, acetone production by gas chromatography, uninhibited rate 1.5 μ moles/hr/mg of protein
[17] = inhibitor 1mM, incubated with soluble extracts 15 min at 0°C, substrate 2-butanol, uninhibited activity 25 nmoles of NAD+ reduced per min per mg of protein

Compound: C=CCCC [1-Pentene]
- Rate of Product Formation [1, 13]: 0.195 μ moles/hr/mg protein
- Rate of Product Formation [2, 14]: 0.025 μ mole/10 min./mg protein

Compound: CCN1C(=O)C=CC1=O [N-Ethylmaleimide]
- inhibition at 1000 µM [3, 15]: 81%
- inhibition at 1000 µM [4, 16]: 70%
- Inhibition (%) [5, 17]: 30%

Compound: CCCCCC(C)O (stereo not shown) [2-Heptanol]
- Rate of Oxidation (%) [6]: 4%

Compound: CCC [Propane]
- Rate of Product Formation ([1]; alkane substrate, primary alcohol product (n-propanol, n-butanol), P(40) fraction, NADH and oxygen, pH 7.0, 30°C): 0.600 μ moles/hr/mg protein
- Rate of Product Formation ([1]; alkane substrate, secondary alcohol product (2-propanol, 2-butanol), P(40) fraction, NADH and oxygen, pH 7.0, 30°C): 0.300 μ moles/hr/mg protein
- effect of propane on the oxidation of propylene to propylene oxide [7]: reducing the amount of propylene oxide formed

Compound: C/C=C/C [trans-But-2-ene]
- Rate of Product Formation ([2]; pH 7): 0.022 μ mole/10 min./mg protein

Compound: NO [Hydroxylamine]
- Inhibition (%) Propylene-Oxidizing Activity [3, 15]: 83%
- Inhibition (%) Propane-Oxidizing Activity [4, 16]: 70%

Compound: CCCCC(C)O (stereo not shown) [2-Hexanol]
- Rate of Oxidation (%) [6]: 10%

Compound: CCO [ethanol]
- Epoxidation Rate (rate of propylene oxide formation) ([8]; 5 μmole ethanol, 1 hr., control 2.5): 2.9 μ mole/0.5 ml.
- Epoxidation Rate (rate of propylene oxide formation) ([8]; 5 μmole ethanol, 2 hr., control 3.8): 5.6 μ mole/0.5 ml.
- Epoxidation Rate (rate of propylene oxide formation) ([8]; 5 μmole ethanol, 3 hr., control 3.9): 6.5 μ mole/0.5 ml.
- Epoxidation Rate (rate of propylene oxide formation) ([8]; 25 μmole ethanol, 1 hr., control 2.5): 2.4 μ mole/0.5 ml.
- Epoxidation Rate (rate of propylene oxide formation) ([8]; 25 μmole ethanol, 2 hr., control 3.8): 5.2 μ mole/0.5 ml.
- Epoxidation Rate (rate of propylene oxide formation) ([8]; 25 μmole ethanol, 3 hr., control 3.9): 6.5 μ mole/0.5 ml.

Compound: C/C=C\C [cis-But-2-ene]
- Rate of Product Formation ([2]; pH 7): 0.018 μ mole/10 min./mg protein

Compound: NNC(N)=S [Thiosemicarbazide]
- inhibition at 1000 µM [3, 15]: 12%
- inhibition at 1000 µM [4, 16]: 10%

Compound: c1c[nH]cn1 [Imidazole]
- inhibition at 1000 µM [4, 16]: 80%
- inhibition [9]: 80%

Compound: O=C(O)c1cc[c]([Hg+])cc1.[OH-] [p-Hydroxymercuribenzoate]
- Inhibition (%) Propylene-Oxidizing Activity [3, 15]: 35%
- Inhibition (%) Propane-Oxidizing Activity [4, 16]: 35%
- Inhibition (%) [5]: 95%

Compound: C=CCCCCC [1-Heptene]
- Rate of Product Formation ([2]; pH 7): 0.008 μ mole/10 min./mg protein

Compound: CC(C)O [Isopropanol]
- Rate of Oxidation (%) [6]: 65%

Compound: CC(=N)S [Thioacetamide]
- inhibition at 1000 µM [3, 15]: 68%
- inhibition at 1000 µM [4, 16]: 60%

Compound: C=CC [Propylene]
- Rate of Product Formation [1, 13]: 0.360 μ moles/hr/mg protein
- Rate of Product Formation [2, 14]: 0.052 μ mole/10 min./mg protein

Compound: CCCC(C)O (stereo not shown) [2-Pentanol]
- Rate of Oxidation (%) [6]: 12%

Compound: C=CC=C [1,3-Butadiene]
- Rate of Product Formation [2, 14]: 0.044 μ mole/10 min./mg protein

Compound: 2-Butanol
- Rate of Oxidation (%) [6]: 100%

Compound: NC(N)=S [Thiourea]
- inhibition at 1000 µM [3, 15]: 12%
- inhibition at 1000 µM [4, 16]: 10%

Compound: NNC(=O)c1ccncc1 [Isoniazide]
- inhibition at 1000 µM [3, 15]: 35%
- inhibition at 1000 µM [4, 16]: 30%

Compound: C=CCC [1-Butene]
- Rate of Product Formation ([1]; pH 7): 0.216 μ moles/hr/mg protein
- Rate of Product Formation ([2]; pH 7): 0.030 μ mole/10 min./mg protein

Compound: C=C(C)C [Isobutene]
- Rate of Product Formation [2, 14]: 0.046 μ mole/10 min./mg protein

Compound: C=C [Ethylene]
- Rate of Product Formation ([1]; pH 7): 0.153 μ moles/hr/mg protein
- Rate of Product Formation ([2]; pH 7): 0.040 μ mole/10 min./mg protein

Compound: C=Cc1ccccc1 [Styrene]
- Rate of Product Formation [2, 14]: 0.005 μ mole/10 min./mg protein

Compound: c1cnc2c(c1)ccc1cccnc12 [1,10-Phenanthroline]
- inhibition at 1000 µM [3, 15]: 90%
- inhibition at 1000 µM [4, 16]: 80%
- Inhibition (%) [5, 17]: 80%

Compound: α,α-Bipyridyl
- Inhibition (%) Propylene-Oxidizing Activity [3]: 32%
- Inhibition (%) Propane-Oxidizing Activity [4]: 30%
- Inhibition (%) [10]: 32%

Compound: CC1CO1 (stereo not shown) [propylene oxide]
- amount of propylene oxide ([11]; 5 µ moles added to heat-killed cell suspensions, 30°C): remained constant
- non-enzymatic degradation of propylene oxide ([11]; heat-killed cell suspensions at pH 5, 7 and 9, one hour of incubation): did not decrease
- disappearance in propylene oxide [12]: Some disappearance
